This note sets out measurements from US20040039014A1, “Methods and compounds for treating depression and other disorders” (NPS Pharmaceuticals, Inc., priority 1998, published 2004).

The target of assay [1] is T1, NMDA receptor.
T1 construct: rat cortex membranes
Put plainly: [3H]MK-801 binding assay (rat cortex synaptic plasma membranes). The settings on record: read-out: [3H]MK-801 data IC50, Table I. The procedure:
Synaptic plasma membranes (SPMs) from rat cortex were prepared as follows. Isolated cerebral cortices from male and female rats were purchased from Pel-Freez (Rogers, Ariz.) in bulk, and stored at −80° C. The cortices from 25 rats were thawed and pooled. […] The resulting homogenates were centrifuged for 10 min at 1,000×g in a T865 rotor, UltraPro80 Sorvall Centrifuge. The supernatant was removed and subsequently centrifuged at 30,000×g for 30 min. […] Membranes were washed by re-suspension in 500 ml of 5 mM K-EDTA (pH 7.0), incubated at 32° C. for 30 min with stirring, and centrifuged at 100,000×g for 30 min. The final pellet was resuspended in 60 ml of […] K-EDTA (pH 7.0) and stored in aliquots at −80° C. The extensive washing procedure utilized in this assay was designed to minimize the concentrations of glutamate and glycine (co-agonists at the NMDA receptor-ionophore complex) present in the membrane preparation.
On the day of assay, aliquots of SPM were thawed and resuspended in 75 vols of 5 mM K-EDTA, pH 7.0. SPM were centrifuged at 100,000×g for 30 min at 4° C.
The SPM pellet was resuspended in assay buffer (30 mM EPPS, 1 mM K-EDTA, pH 7.0) by polytron. […] Binding was started by the addition of the tissue homogenate. The assay was terminated by the addition of 4 ml ice-cold buffer, followed by filtration over glass-fiber filters (Schleicher & Schuell No. 30) on a Millipore 12-well filtration manifold. Filters were washed with another 3 ×4 ml ice-cold buffer (pH 7.0). Radioactivity on the filters was measured using Fisherbrand Scinti-Safe scintillation cocktail. Samples were shaken for 45-60 min on a shaker platform to solubilize the radioactivity. Counting for ^3H was performed in a Beckman 6000IC LS Scintillation Counter for 4 min per sample.

The subject of another assay is male NMRI-CERJ mice. Briefly: Automated tail-suspension test in mice (Compound 19). The class given is in vivo, mouse. The settings on record: 16 mg/kg i.p., 30 min prior to testing; p<0.001. The procedure: In this test, the animal is suspended by the tail for 6 minutes. The behavior of the animal is recorded automatically using a special computerized apparatus which measures two parameters, the duration of immobility and the power of the movements. Ten animals are studied per dose group. […] This test, which is a variant of the behavioral despair test, is based on the assumption that animals faced with an insoluble aversive situation will alternate between phases of activity (searching to escape) and immobility (waiting, “despairs”).

Assay [2] has as its system T2, NMDA receptor.
T2 construct: fura2 data IC50; rat cerebellar granule cells
Briefly: NMDA receptor assay (fura-2 cytosolic calcium in cultured rat cerebellar granule cells). The class given is cell-based. The settings on record: Table I, read-out: fura2 data IC50. The procedure: All culture media, antibiotics, and enzymes, with the exception of fetal calf serum (Hyclone Laboratories, Logan, Utah), were purchased from Sigma Chemical Co., St. Louis, Mo. Fura-2/AM was obtained from Molecular Probes, Eugene, Oreg., and was prepared freshly in dimethylsulfoxide (DMSO) before use. Ionomycin (Calbiochem) was stored as a stock solution in DMSO. Nifedipine (Sigma) and nimodipine (RBI) were dissolved in absolute ethanol. […] All other agents were dissolved in phosphate-buffered saline (PBS), and adjusted to pH 7.4
Preparation of Rat Cerebellar Granule Cell (RCGC) Cultures
Briefly, primary cultures of cerebellar granule neurons were obtained from 8-day-old rats and plated onto squares of Aclar plastic coated with poly-L-lysine. The plastic squares were placed in 12-well culture plates, and ˜7.5×10^5 cells were added to each well. Cultures were maintained in Eagles's medium containing 25 mM KCl, 10% fetal calf serum, 2 mM glutamine, 100 μg/ml gentamicin, 50 U/ml penicillin, and 50 μg/ml streptomycin at 37° C. in a humid atmosphere of 5%CO2 in air for 24 hr before the addition of cytosine arabinoside (10 μM, final). No changes of culture medium were made until the cells were used for fluorescence recording 6-8 days after plating.
Measurement of Cytosolic Calcium
(“Ca^2+-free” buffer contained no added CaCl2 and 30 μM EGTA). The cells were then rinsed with the same buffer, lacking fura-2/AM, and maintained at room temperature until used for measurement of fluorescence, the Aclar squares were transferred into quartz cuvettes containing 2 ml of the HEPES buffer. The cuvette was then placed into a thermostatted holder equipped with a magnetic stirrer in a custom-built spectrofluorimeter (Biomedical Instrumentation Group, University of Pennsylvania, Philadelphia, Pa.). The size of the plastic Aclar square was such as to fit snugly in the cuvette when placed at a diagonal and therefore suspend itself over the spin bar. Fluorescence was measured using excitation and emission wavelengths of 340 and 510 nm, respectively. The amplitude of the evoked increase in fluorescence and subsequent inhibition were recorded and the concentration of [Ca^2+]i was calculated using the formula:
[Ca^2+]=Kd (F-Fmin)/(Fmax-F) (Eq. 1)
F=fluorescence amplitude evoked at a particular time point or concentration of compound;
Fmin=minimum fluorescence determined after the addition of a 2.5 M TRIS/0.3 M EGTA solution;
Fmax=maximum fluorescence determined following the addition of 7 mM ionomycin in DMSO; and […]

Assay [3] deals with T3, serotonin transporter site (Rattus norvegicus, UniProt P31652).
T3 construct: tissue NovaScreen (performed the assay); host or cells: rat forebrain membranes
Briefly: Serotonin reuptake inhibition assay ([3H]citalopram binding, rat forebrain membranes). The method, then: (§1) Monoamine Transporter Minding Assays
(§2) Monoamine transporter binding assays (reuptake inhibition assays) were performed by NovaScreen using standard radioligand binding assays. The transporter binding assays are described briefly below:
Serotonin Reuptake Inhibition Assay
Rat forebrain membranes were incubated with 0.7 nM [^3H] citalopram, N-methyl, (70-87 Ci/mmol)in 50 mM Tris-HCl (pH 7.4), 120 mM NaCl, and 5 mM KCl at 25° C. for 60 minutes. […] Reactions were terminated by rapid vacuum filtration onto glass fiber filters.

Assay [4] addresses T4, norepinephrine transporter site (Rattus norvegicus, UniProt Q63380).
T4 construct: tissue NovaScreen (performed the assay); host or cells: rat forebrain membranes
Briefly: Norepinephrine reuptake inhibition assay ([3H]nisoxetine binding, rat forebrain membranes). The procedure: as §1, §2
Norepinephrine Reuptake Inhibition Assay
Reactions were terminated by rapid vacuum filtration onto glass fiber filters.

Assay [5] deals with T5, dopamine transporter site (Cavia porcellus, UniProt H0WCX4).
T5 construct: tissue NovaScreen (performed the assay); host or cells: guinea pig striatal membranes
Put plainly: Dopamine reuptake inhibition assay ([3H]WIN 35428 binding, guinea pig striatal membranes). The procedure:
as §1, §2
Dopamine Reuptake Inhibition Assay:
Reactions were terminated by rapid vacuum filtration onto glass fiber filters. Bound radioactivity was determined using liquid scintillation spectrometry and experimental values were compared to control values to determine binding to the dopamine transporter site based on Madras, et al., Molec.

A further assay concerns male NIH-Swiss mice. Put plainly: Mouse forced-swim test (FST). The assay is classed as in vivo. The settings on record: 10 mg/kg i.p. single dose 30 minutes prior to testing. The method, then: (§3) For the mouse and rat forced-swim tests, male pathogen-free NIH-Swiss mice (Harlan Sprague-Dawley) weighing between 22-25 g, and male pathogen-free Sprague-Dawley rats (Harlan Sprague-Dawley) weighing between 320-350 g were used. Animals were removed from the housing room to the testing area in their own cages and allowed to adapt to the new environment for at least 1 hour before testing. Mice were administered either drug (imipramine, 10 mg/kg i.p.; or Compound 60, various p.o or i.p. doses) or saline. Thirty minutes to 24 hours later, mice were placed individually in cylinders (diameter: 10 cm; height: 25 cm) filled with 6 cm of water (22-25° C.) for 6 minutes. The duration of immobility during the last 4 minutes of the 6 minute test was scored. A mouse was recorded as immobile when floating motionless or making only those movements necessary to keep its head above water. Results were expressed as the duration of immobility (seconds).

For a further assay, the system named is male Sprague-Dawley rats. Put plainly: Rat forced-swim test (FST). The assay is classed as in vivo. The settings on record: Table VI; 10 mg/kg i.p., 30 minutes prior to testing; saline control 47.9. The procedure: as §3
The rat forced-swim test was conducted over two days. On treatment Day 1, rats were placed individually in cylinders (diameter: 18 cm; height: 40 cm) filled with water (22-25° C.) to a depth of 15 cm for 15 minutes. The duration of immobility during the first 5 minutes was scored. After testing, the rats were dried with paper towels and placed in holding cages. Five minutes after removal from the testing cylinders, animals received either drug (imipramine, 10 mg/kg i.p.; or Compound 60, various p.o. doses) or saline (p.o.). Ten minutes later, the rats were returned to their home cages. […] The duration of immobility during the first 5 minute period was recorded. A rat was recorded as immobile when floating motionless or making only those movements necessary to keep its head above water. […]

The subject of another assay is male C57BL/6 mice. Put plainly: Mouse tail-suspension test (TST) with Compound 60. The assay is classed as in vivo. The procedure: For the mouse tail-suspension test with Compound 60, male pathogen-free C57BL/6 mice (Harlan Sprague-Dawley) weighing between 22-25 g were used. Animals were removed from the housing room to the testing area in their own cages and allowed to adapt to the new environment for at least 1 hour before testing. Mice were administered either drug (imipramine, 15 mg/kg i.p.; or Compound 60, various p.o. doses) or saline. Thirty minutes to 24 hours later, the mice were suspended on the edge of a shelf 80 cm above the floor in the testing room by adhesive tape placed approximately 1 cm from the tip of the tail. The duration of immobility was recorded during a test period of 5 minutes. Mice were considered immobile only when they hung passively and completely motionless. Results were expressed as the duration of immobility (sec).

[6] abbreviates: Table I, read-out: 5-HT Uptake Ki.

Where two headings read alike, the source gives them in different places. Marks after values point to notes of the source that are not given here.

T5 sequence (H0WCX4 1-619): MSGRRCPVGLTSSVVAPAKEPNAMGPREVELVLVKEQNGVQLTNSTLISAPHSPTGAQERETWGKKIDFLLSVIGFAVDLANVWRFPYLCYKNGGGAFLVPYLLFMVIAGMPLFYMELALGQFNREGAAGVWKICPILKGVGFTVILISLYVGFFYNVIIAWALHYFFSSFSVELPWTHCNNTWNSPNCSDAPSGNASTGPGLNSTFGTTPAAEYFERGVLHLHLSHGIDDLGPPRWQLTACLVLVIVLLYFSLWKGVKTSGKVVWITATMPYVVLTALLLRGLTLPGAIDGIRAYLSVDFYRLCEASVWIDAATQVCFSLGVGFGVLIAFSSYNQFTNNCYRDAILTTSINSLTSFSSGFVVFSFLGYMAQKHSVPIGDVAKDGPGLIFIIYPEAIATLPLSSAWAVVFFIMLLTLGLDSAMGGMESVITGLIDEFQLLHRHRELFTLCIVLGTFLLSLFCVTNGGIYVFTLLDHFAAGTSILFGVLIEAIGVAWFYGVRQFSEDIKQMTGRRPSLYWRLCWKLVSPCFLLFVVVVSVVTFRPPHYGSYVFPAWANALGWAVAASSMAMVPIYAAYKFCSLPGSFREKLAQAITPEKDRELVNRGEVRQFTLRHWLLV
T3 sequence (P31652 whole entry): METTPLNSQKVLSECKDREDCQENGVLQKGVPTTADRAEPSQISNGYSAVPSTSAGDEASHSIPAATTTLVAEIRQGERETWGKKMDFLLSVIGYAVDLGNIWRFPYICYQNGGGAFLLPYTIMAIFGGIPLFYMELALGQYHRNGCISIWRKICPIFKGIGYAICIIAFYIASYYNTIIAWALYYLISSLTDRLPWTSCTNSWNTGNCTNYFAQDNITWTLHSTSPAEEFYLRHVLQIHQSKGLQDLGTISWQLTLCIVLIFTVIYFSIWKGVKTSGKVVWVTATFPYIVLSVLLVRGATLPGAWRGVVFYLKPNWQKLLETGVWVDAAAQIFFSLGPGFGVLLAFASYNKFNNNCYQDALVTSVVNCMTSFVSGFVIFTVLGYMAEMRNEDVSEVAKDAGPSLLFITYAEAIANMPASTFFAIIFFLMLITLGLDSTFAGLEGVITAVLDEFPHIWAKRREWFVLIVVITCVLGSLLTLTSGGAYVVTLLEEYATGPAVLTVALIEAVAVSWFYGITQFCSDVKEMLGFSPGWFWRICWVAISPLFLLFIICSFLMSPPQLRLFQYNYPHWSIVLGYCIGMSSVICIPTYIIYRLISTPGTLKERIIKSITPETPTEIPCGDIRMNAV
T4 sequence (Q63380 1-617): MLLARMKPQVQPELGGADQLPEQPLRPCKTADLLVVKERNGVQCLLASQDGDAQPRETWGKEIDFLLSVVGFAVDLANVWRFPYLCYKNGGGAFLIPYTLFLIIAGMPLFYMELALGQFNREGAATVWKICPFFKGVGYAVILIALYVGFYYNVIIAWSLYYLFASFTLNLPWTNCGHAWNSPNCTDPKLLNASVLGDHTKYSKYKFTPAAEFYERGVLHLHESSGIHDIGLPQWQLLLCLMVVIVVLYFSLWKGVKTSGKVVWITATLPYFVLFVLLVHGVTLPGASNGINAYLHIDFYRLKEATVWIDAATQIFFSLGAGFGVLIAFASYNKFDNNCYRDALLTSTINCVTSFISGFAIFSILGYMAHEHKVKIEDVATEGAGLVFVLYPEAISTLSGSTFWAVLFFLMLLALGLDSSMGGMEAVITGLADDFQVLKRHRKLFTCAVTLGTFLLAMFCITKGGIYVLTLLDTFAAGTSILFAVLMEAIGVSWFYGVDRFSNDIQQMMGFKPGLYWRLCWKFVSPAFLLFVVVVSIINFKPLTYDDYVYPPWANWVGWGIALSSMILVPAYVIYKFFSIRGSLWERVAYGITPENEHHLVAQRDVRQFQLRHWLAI

The IC50 is the concentration at which inhibition is half-maximal. Take `NCCC(c1ccccc1)c1ccccc1` [Compound 19]: the IC50 on NMDA receptor [1] came out at 2100 nM. Also, in the assay on male NMRI-CERJ mice, the “increase in the power of movements” value came out at 275%.

What is called Ki is the equilibrium dissociation constant of an inhibitor or competing ligand from its target. For the molecule `NCCC(c1cccc(F)c1)c1cccc(F)c1` [Compound 20], the IC50 amounted to 70 nM in the assay on NMDA receptor [2] and 252 nM on NMDA receptor [1]. The Ki in [3] (setting [6]) is 256 nM; in assay [4], 312 nM; in assay [5], 3000 nM.

With `C[C@@H](CN)C(c1cccc(F)c1)c1cccc(F)c1` [Compound 33], the IC50 was 60 nM in the assay on NMDA receptor [2] and 181 nM on NMDA receptor [1]. Also, the Ki in [3] (setting [6]) was determined as 1200 nM; in assay [4], 3800 nM; in assay [5] it was 826 nM.

On to `C[C@H](CN)C(c1cccc(F)c1)c1cccc(F)c1` [Compound 34], for which the results for the IC50 in the assay with NMDA receptor [2] and at NMDA receptor [1] were 426 nM and 2700 nM, respectively. For the same molecule, the Ki in assay [3] (setting [6]) was found to be 2100 nM; in assay [4] it was 3000 nM; in assay [5] it was 602 nM.

For the molecule `C[C@H](N)CC(c1cccc(F)c1)c1cccc(F)c1` [Compound 50], the results for the IC50 with NMDA receptor [2] and at NMDA receptor [1] were 89 nM and 762 nM, respectively. Besides, the Ki came out at 45 nM in [3] (setting [6]), 107 nM in assay [4] and 1800 nM in [5].

Regarding `CNCCC(c1ccccc1)c1ccccc1` [Compound 67], the IC50 in the assay with NMDA receptor [2] stood at 11000 nM; on NMDA receptor [1], 2900 nM.

In the case of `Fc1cccc(C(c2cccc(F)c2)C2CCCNC2)c1` (centres unmarked) [Compound 111], the results for the half-inhibitory concentration (IC50) with NMDA receptor [2] and on NMDA receptor [1] were 645 nM and 167 nM, respectively. The Ki came to 600 nM in assay [3], 124 nM in assay [4] and 30 nM in [5].

On to `NCCC(Oc1cccc(F)c1)c1ccccc1` (centres unmarked) [Compound 137], for which the IC50 in the assay on NMDA receptor [2] came out at 232 nM.

On to `CN(C)CCCN1c2ccccc2CCc2ccccc21` [Imipramine, reference compound], for which the “Mean duration of immobility” value is listed as 53.4* sec in the assay with male NIH-Swiss mice (Table IV, saline control 129.7); 72.5* sec in the assay on male NIH-Swiss mice (Table V, saline control 137.8); 103.6* sec with male C57BL/6 mice (Table VII, positive control, 15 mg/kg i.p. 30 minutes prior to testing, saline control 154.9). The “Mean Change in the Duration of Immobility (Day 2 minus Day 1)” value with male Sprague-Dawley rats is given as −23.3* sec. The “Duration of Immobility” value in the assay on male C57BL/6 mice (Table VIII (experiment #1), 15 mg/kg i.p. single dose 30 minutes prior to testing, saline control 210.1) is on record as 133.9* sec.
